Test results from patent US11739074B2, “Ras inhibitors” (Revolution Medicines, Inc., priority 2019, dated 2023).
Where two headings read alike, the source gives them in different places.

Columns and labels:
Assay type in all cases: cell-based
[1] = system: AsPC-1 (K-Ras G12D); assay: Potency assay: pERK in AsPC-1 cells; conditions: Homo sapiens
[2] = system: NCI-H358 (K-Ras G12C); assay: CellTiter-Glo cell viability assay, H358; conditions: Homo sapiens, NCI-H358, 120 h
Procedure: Determination of Cell Viability in RAS Mutant Cancer Cell Lines
Protocol: CellTiter-Glo® Cell Viability Assay
Note—The following protocol describes a procedure for monitoring cell viability of K-Ras mutant cancer cell lines in response to a compound of the invention. Other RAS isoforms may be employed, though the number of cells to be seeded will vary based on cell line used.
Test compounds (132.5 nL) were directly dispensed into the assay plates containing cells. […] On day 5, assay plates and their contents were equilibrated to room temperature for approximately 30 minutes. […] Luminescence was measured using the PerkinElmer Enspire. Data were normalized by the following: (Sample signal/Avg. DMSO)*100. The data were fit using a four-parameter logistic fit.

[3] = system: AsPC-1 (K-Ras G12D); assay: CellTiter-Glo cell viability assay, AsPC-1; conditions: Homo sapiens, ASPC1, 120 h
How it was run: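 Cells already in plates received compound by direct dispensing. After incubation to day 5, plates sat at room temperature roughly 30 minutes, then ATP-based luminescence was measured and values derived from a four-parameter fit of DMSO-normalized data.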

[4] = ASPC1, read-out: pERK EC50 (AsPC-1 KRAS G12D)
[5] = read-out: H358 Cell Viability IC50, NCI-H358, K-Ras G12C, 5-day treatment
[6] = read-out: AsPC-1 Cell Viability IC50, AsPC-1, K-Ras G12D, 5-day treatment
[7] = ASPC1, AsPC-1 cells, K-Ras G12D, read-out: pERK EC50 (AsPC-1 KRAS G12D)
[8] = NCI-H358, K-Ras G12C, 5-day treatment, read-out: H358 Cell Viability IC50
[9] = AsPC-1, K-Ras G12D, 5-day treatment, read-out: AsPC-1 Cell Viability IC50

| SMILES | EC50 [1, 4] [µM] | IC50 [2, 5] [µM] | IC50 [3, 6] [µM] | EC50 [1, 7] [µM] | IC50 [2, 8] [µM] | IC50 [3, 9] [µM] |
| --- | --- | --- | --- | --- | --- | --- |
| CCn1c(-c2cccnc2[C@H](C)OC)c2c3cc(ccc31)-c1cc(O)cc(c1)C[C@H](NC(=O)[C@H](C(C)C)N(C)C(=O)CN(C)C(=O)[C@@H]1CN1CCOC)C(=O)N1CCC[C@H](N1)C(=O)OCC(C)(C)C2 (stereo partly drawn) [Compound 160] | < 5 | < 0.01 | 0.1 to 1 |  |  |  |
| CCn1c(-c2cccnc2[C@H](C)OC)c2c3cc(ccc31)-c1cc(O)cc(c1)C[C@H](NC(=O)[C@H](C(C)C)N(C)C(=O)[C@H]1CCCN(C(=O)[C@H]3CN3)C1)C(=O)N1CCC[C@H](N1)C(=O)OCC(C)(C)C2 [Compound 165] |  |  |  | < 5 | < 0.01 | 1 to 10 |
| CCn1c(-c2cccnc2[C@H](C)OC)c2c3cc(ccc31)-c1csc(n1)C[C@H](NC(=O)[C@H](C(C)C)N(C)C(=O)N1CCN(C(=O)[C@@H]3CN3)CC1)C(=O)N1CCC[C@H](N1)C(=O)OCC(C)(C)C2 [Compound 168] |  |  |  | < 5 | 0.01 to 0.1 | 0.1 to 1 |
| CCn1c(-c2cccnc2[C@H](C)OC)c2c3cc(ccc31)-c1csc(n1)C[C@H](NC(=O)[C@H](C(C)C)N(C)C(=O)N1CCN(C(=O)[C@H]3CN3)CC1)C(=O)N1CCC[C@H](N1)C(=O)OCC(C)(C)C2 [Compound 169] |  |  |  | < 5 | 0.01 to 0.1 | 0.1 to 1 |
| CCn1c(-c2cccnc2[C@H](C)OC)c2c3cc(ccc31)-c1cc(O)cc(c1)C[C@H](NC(=O)[C@H](C1CCCC1)N(C)C(=O)CN(C)C(=O)[C@@H]1N[C@@H]1C1CC1)C(=O)N1CCC[C@H](N1)C(=O)OCC(C)(C)C2 [Compound 170] |  |  |  | < 5 | 0.01 to 0.1 | 0.01 to 0.1 |
| CCn1c(-c2cccnc2[C@H](C)OC)c2c3cc(ccc31)-c1cc(O)cc(c1)C[C@H](NC(=O)[C@H](C(C)C)N(C)C(=O)[C@@]1(F)CCN(C(=O)[C@H]3CN3)C1)C(=O)N1CCC[C@H](N1)C(=O)OCC(C)(C)C2 [Compound 171] |  |  |  | < 5 | < 0.01 | 0.1 to 1 |
| CCn1c(-c2cccnc2[C@H](C)OC)c2c3cc(ccc31)-c1cc(O)cc(c1)C[C@H](NC(=O)[C@H](C1CCCC1)N1CC[C@@]3(CCN(C(=O)[C@H]4CN4)C3)C1=O)C(=O)N1CCC[C@H](N1)C(=O)OCC(C)(C)C2 [Compound 174] |  |  |  | < 5 | < 0.01 | 0.1 to 1 |
| CCn1c(-c2cccnc2[C@H](C)OC)c2c3cc(ccc31)-c1cc(O)cc(c1)C[C@H](NC(=O)[C@H](C(C)C)N(C)C(=O)[C@@H]1CCN(C(=O)[C@H]3CN3)C1)C(=O)N1CCC[C@H](N1)C(=O)OCC(C)(C)C2 [Compound 186] |  |  |  | < 5 | < 0.01 | 0.1 to 1 |
| CCn1c(-c2cccnc2[C@H](C)OC)c2c3cc(ccc31)-c1cc(O)cc(c1)C[C@H](NC(=O)[C@H](C(C)C)N(C)C(=O)CN(C)C(=O)[C@H]1CN1CCCOC)C(=O)N1CCC[C@H](N1)C(=O)OCC(C)(C)C2 (stereo partly drawn) [Compound 201] | < 5 | < 0.01 | 0.1 to 1 |  |  |  |
| CCn1c(-c2cccnc2[C@H](C)OC)c2c3cc(ccc31)-c1cc(O)cc(c1)C[C@H](NC(=O)[C@H](C(C)C)N(C)C(=O)C13CCC(CC1)N3C(=O)[C@H]1CN1)C(=O)N1CCC[C@H](N1)C(=O)OCC(C)(C)C2 [Compound 202] |  |  |  | < 5 | 0.1 to 1 | 1 to 10 |
| CCn1c(-c2cccnc2[C@H](C)OC)c2c3cc(ccc31)-c1cc(O)cc(c1)C[C@H](NC(=O)[C@H](C(C)C)N(C)C(=O)[C@@H]1CCN(C(=O)[C@H]3CN3)[C@@H]1C)C(=O)N1CCC[C@H](N1)C(=O)OCC(C)(C)C2 [Compound 207] |  |  |  | < 5 | < 0.01 | 0.1 to 1 |
| CCn1c(-c2cccnc2[C@H](C)OC)c2c3cc(ccc31)-c1cc(O)cc(c1)C[C@H](NC(=O)[C@H](C(C)C)N(C)C(=O)[C@@H]1CCN(C(=O)[C@@H]3CN3)[C@@H]1C)C(=O)N1CCC[C@H](N1)C(=O)OCC(C)(C)C2 [Compound 208] |  |  |  | < 5 | 0.01 to 0.1 | 1 to 10 |
| CCn1c(-c2cccnc2[C@H](C)OC)c2c3cc(ccc31)-c1csc(n1)C[C@H](NC(=O)[C@H](C1CCCC1)N(C)C(=O)CN(C)C(=O)[C@@H]1N[C@@H]1C1CC1)C(=O)N1CCC[C@H](N1)C(=O)OCC(C)(C)C2 [Compound 210] |  |  |  | < 5 | 0.1 to 1 | 0.1 to 1 |
